The source of these data is US10022461B2, “Pyrrolo[2,3-C]pyridines as imaging agents for neurofibrilary tangles” (MERCK SHARP & DOHME CORP., priority 2014, dated 2018).

Each structure is given as a SMILES string.

The target in one test is tau (Homo sapiens, UniProt P10636). The test can be described thus: displacement tau binding assay in AD brain homogenates with [^3H]-6. The settings on record: Table 1, displacement of [^3H]-6 (0.25 nM). As to the method: The frozen human brain samples of Alzheimer's disease (AD) were purchased from Analytic Biological Services Inc. They were postmortem tissue from donors with clinical diagnosis of AD. As much of the white matter was dissected out of the frontal cortex in order to enrich the tissue preparations for gray matter. Brain homogenates of gray matter enriched frontal cortex were prepared by homogenizing the tissue in ice cold Phosphate Buffered Saline (PBS), pH 7.4 at 80 mg wet weight tissue per 1 mL for 45 seconds at 4° C. on setting 16 of Polytron. The homogenate was further diluted with ice cold PBS to 30 mg wet weight tissue per 1 mL and homogenized for an additional minute as described above. Homogenates were aliquoted in 5 ml/tube and store at −70° C. until use. […] Brain homogenates were diluted to 0.5 mg/mL from original 30 mg/mL volume in Assay Buffer, and 200 μl were added to the assay plate for a final concentration of 100 μg wet weight/assay tube. [^3H]-6 was prepared at […] final concentration in Assay Buffer plus 20% DMSO and 25 μl was added to the assay plate for final assay concentration of 0.25 nM. The assay plate was incubated at room temperature (25° C.) for 90 minutes. […] Filter plates were dried for 1 hour in a vacuum oven and 50 μl/well MicroScint-20 were added. Plates were counted 1 min per well by Packard Topcount. Total amount of radioligand used in the assay was determined by counting 25 μl of 10× ligand stock. […] Tau Ki data for representative compounds of the invention are found in Table 1.
Sequence of tau (P10636 2-758 limits assumed): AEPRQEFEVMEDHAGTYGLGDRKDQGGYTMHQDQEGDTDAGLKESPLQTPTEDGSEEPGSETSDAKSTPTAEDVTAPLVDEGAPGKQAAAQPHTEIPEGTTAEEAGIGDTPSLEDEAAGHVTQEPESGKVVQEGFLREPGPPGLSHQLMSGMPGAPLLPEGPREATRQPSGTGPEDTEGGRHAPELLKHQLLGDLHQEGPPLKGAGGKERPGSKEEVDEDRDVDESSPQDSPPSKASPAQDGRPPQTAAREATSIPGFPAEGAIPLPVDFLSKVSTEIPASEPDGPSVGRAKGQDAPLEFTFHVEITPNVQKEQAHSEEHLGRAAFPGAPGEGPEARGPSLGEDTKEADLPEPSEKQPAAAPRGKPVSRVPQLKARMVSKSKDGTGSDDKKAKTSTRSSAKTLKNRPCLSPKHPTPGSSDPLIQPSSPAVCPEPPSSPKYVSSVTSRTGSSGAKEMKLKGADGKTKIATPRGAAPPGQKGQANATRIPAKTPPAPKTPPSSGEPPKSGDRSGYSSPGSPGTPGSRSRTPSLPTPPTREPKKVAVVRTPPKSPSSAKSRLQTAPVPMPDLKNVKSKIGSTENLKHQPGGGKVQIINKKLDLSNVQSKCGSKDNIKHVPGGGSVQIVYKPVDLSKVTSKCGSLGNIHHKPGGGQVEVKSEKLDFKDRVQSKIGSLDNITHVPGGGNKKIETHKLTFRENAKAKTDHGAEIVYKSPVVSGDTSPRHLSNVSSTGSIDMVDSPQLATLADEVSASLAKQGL
Broadly, the Ki is a measure of affinity in units of concentration, obtained from inhibition or displacement. `Cc1cc(-n2ccc3ccncc32)ncc1OCCF` [Compound 32, 1-(5-(2-fluoroethoxy)-4-methylpyridin-2-yl)-1H-pyrrolo[2,3-c]pyridine] yielded a Ki of 2.98 nM.

With `FCCNc1ccc(-n2ccc3ccncc32)nc1` [Compound 36, N-(2-fluoroethyl)-6-(1H-pyrrolo[2,3-c]pyridin-1-yl)pyridin-3-amine], the affinity, expressed as Ki, was 4.96 nM.

Consider `c1cc2ccn(-c3ccc(-c4nc[nH]n4)cn3)c2cn1` [Compound 41, 1-(5-(1H-1,2,4-triazol-3-yl)pyridin-2-yl)-1H-pyrrolo[2,3-c]pyridine], for which the Ki stood at 8.8 nM. Compound `Fc1ccc2cnc(-n3ccc4ccncc43)nc2c1` [Compound 68] gave a Ki of 8.45 nM. The same measure, in the same setting: the same measure for `FC1CCN(c2ccc(-n3ccc4ccncc43)nc2)CC1` [Compound 43, 1-(5-(4-fluoropiperidin-1-yl)pyridin-2-yl)-1H-pyrrolo[2,3-c]pyridine]: 10 nM; for `Fc1cc2ccn(-c3cc4ccccc4cn3)c2cn1` [Compound 38, 3-(5-fluoro-1H-pyrrolo[2,3-c]pyridin-1-yl)isoquinoline]: 52.3 nM. `CNc1ccc(-c2ccc(-n3ccc4ccncc43)nc2)cn1` [Compound 88] showed a Ki of 0.69 nM. On the same count and under the same terms, the same measure for `c1cnc(-c2ccc(-n3ccc4ccncc43)nc2)cn1` [Compound 64]: 3.17 nM; for `OCCC1CCN(c2ccc(-n3ccc4ccncc43)nc2)CC1` [Compound 31-1, 2-(1-(6-(1H-pyrrolo[2,3-c]pyridin-1-yl)pyridin-3-yl)piperidin-4-yl)ethanol]: 3.54 nM.

On to `c1cc2ccn(-c3ccc(-c4cncs4)cn3)c2cn1` [Compound 53], for which the Ki worked out at 1.02 nM. The compound `FCCCNc1ccc(-n2ccc3ccncc32)nc1` [Compound 35, N-(3-fluoropropyl)-6-(1H-pyrrolo[2,3-c]pyridin-1-yl)pyridin-3-amine] returned a Ki of 3.19 nM.

`CC#Cc1cnc(-n2ccc3ccncc32)cc1CF` [Compound 21, 1-(4-(fluoromethyl)-5-(prop-1-ynyl)pyridin-2-yl)-1H-pyrrolo[2,3-c]pyridine]: the affinity corresponds to a Ki of 4.1 nM.

In turn, `Cc1cc2cnc(-n3ccc4ccncc43)cc2o1` [Compound 23, 2-methyl-6-(1H-pyrrolo[2,3-c]pyridin-1-yl)furo[3,2-c]pyridine] gave a Ki of 2.1 nM. On the same count and under the same terms, the same measure for `c1cc2cnc(-n3ccc4ccncc43)cc2cn1` [Compound 26, 3-(1H-pyrrolo[2,3-c]pyridin-1-yl)-2,6-naphthyridine]: 2.27 nM; for `ClCCC1CCN(c2ccc(-n3ccc4ccncc43)nc2)CC1` [Compound 31, 1-(5-(4-(2-chloroethyl)piperidin-1-yl)pyridin-2-yl)-1H-pyrrolo[2,3-c]pyridine]: 2.88 nM. Take `FCCn1ccc(-c2cnc(-n3ccc4ccncc43)nc2)n1` [Compound 29, 1-(5-(1-(2-fluoroethyl)-1H-pyrazol-3-yl)pyrimidin-2-yl)-1H-pyrrolo[2,3-c]pyridine]: the Ki turned out to be 2.41 nM.

In the case of `Fc1nccc2cnc(-n3ccc4ccncc43)cc12` [Compound 25, 1-fluoro-7-(1H-pyrrolo[2,3-c]pyridin-1-yl)-2,6-naphthyridine], the Ki came out at 14.1 nM. Same read-out and setting: the same measure for `Cn1cc(-c2ccc(-n3ccc4ccncc43)nc2)cn1` [Compound 58]: 1.32 nM; for `COc1cccc2cnc(-n3ccc4ccncc43)cc12` [Compound 70]: 44.4 nM; for `c1cc2ccn(-c3cc4c(cn3)CCCN4)c2cn1` [Compound 39, 7-(1H-pyrrolo[2,3-c]pyridin-1-yl)-1,2,3,4-tetrahydro-1,6-naphthyridine]: 10.8 nM. The compound `CC#Cc1ccc(-n2ccc3ccncc32)nc1` [Compound 52] had a Ki of 0.98 nM. With `Nc1ccc2cc(-n3ccc4ccncc43)ncc2c1` [Compound 12, 3-(1H-pyrrolo[2,3-c]pyridin-1-yl)isoquinolin-7-amine], the affinity, expressed as Ki, was 0.29 nM. On the same count and under the same terms, the same measure for `FCCOc1cccc2cc(-n3ccc4ccncc43)ncc12` [Compound 67]: 6.75 nM; for `FCC#Cc1ccc(-n2ccc3ccncc32)nc1` [Compound 7, 1-(5-(3-fluoroprop-1-ynyl)pyridin-2-yl)-1H-pyrrolo[2,3-c]pyridine]: 1.65 nM. Regarding `Oc1ccc2nc(-n3ccc4ccncc43)ncc2c1` [Compound 24-5, 2-(1H-pyrrolo[2,3-c]pyridin-1-yl)quinazolin-6-ol], the Ki amounted to 11.1 nM. The compound `Nc1c(F)ccc2cnc(-n3ccc4ccncc43)cc12` [Compound 18, 6-fluoro-3-(1H-pyrrolo[2,3-c]pyridin-1-yl)isoquinolin-5-amine] came in with a Ki of 0.43 nM. `CN(C)c1ccc2cnc(-n3ccc4ccncc43)cc2c1` [Compound 61] yielded a Ki of 2.23 nM. Same read-out and setting: the same measure for `CNc1ccc2cnc(-n3ccc4ccncc43)cc2c1` [Compound 14-1, N-methyl-3-(1H-pyrrolo[2,3-c]pyridin-1-yl)isoquinolin-6-amine]: 0.33 nM; for `Fc1cccc(-c2ccc(-n3ccc4ccncc43)nc2)n1` [Compound 91]: 1.41 nM; for `Cn1ccc2cc(-n3ccc4ccncc43)ncc21` [Compound 19, 1′-methyl-1,5′-bi(1H-pyrrolo[2,3-c]pyridine)]: 0.62 nM. As to `CNc1cccc(-c2ccc(-n3ccc4ccncc43)nc2)c1` [Compound 72], the affinity, expressed as Ki, was 0.76 nM.

Still in this test, the particulars now being: Table 2, displacement of [^3H]-6 (0.25 nM).
Compound `Nc1ccc(F)c2cnc(-n3ccc4ccncc43)cc12` [Compound 116] showed a Ki of 1.28 nM.

The compound `Nc1ccc(I)c2cc(-n3ccc4ccncc43)ncc12` [Compound 120] yielded a Ki of 93.8 nM. Still for that read-out and setting: the same measure for `Nc1c(I)ccc2cc(-n3ccc4ccncc43)ncc12` [Compound 121]: 0.512 nM. `Nc1c(I)ccc2cnc(-n3ccc4ccncc43)cc12` [Compound 119] had a Ki of 0.438 nM. With `Nc1cccc2cnc(-n3ccc4cc(F)ncc43)cc12` [Compound 106], the affinity corresponds to a Ki of 10000 nM. On to `Nc1cc2cnc(-n3ccc4ccncc43)cc2cc1F` [Compound 105, 6-fluoro-3-(1H-pyrrolo[2,3-c]pyridin-1-yl)isoquinolin-7-amine], for which the Ki worked out at 0.383 nM.

`COc1cc2ccn(-c3cc4cc(F)ccc4cn3)c2cn1` [Compound 130] gave an inhibitory constant (Ki) of 4.03 nM.
